Data taken from patent US8664219B2, “Aminopyrimidines useful as inhibitors of protein kinases” (Vertex Pharmaceuticals Incorporated, priority 2007, dated 2014).
pIC50, pKi: −log10 of the molar value.

Legend:
GSK-3β (AA 1-420) = GSK-3β (AA 1-420) (Homo sapiens (Human), UniProt P49841); assay: GSK-3 inhibition assay (standard coupled enzyme system); type: biochemical; settings: 20 μM ATP, 300 μM peptide, 20 nM GSK-3β, 30° C.
Procedure: Compounds of the present invention were screened for their ability to inhibit GSK-3β (AA 1-420) activity using a standard coupled enzyme system (Fox et al., Protein Sci. 1998, 7, 2249). Reactions were carried out in a solution containing 100 mM HEPES (pH 7.5), 10 mM MgCl2, 25 mM NaCl, 300 μM NADH, 1 mM DTT and 1.5% DMSO. Final substrate concentrations in the assay were 20 μM ATP (Sigma Chemicals, St Louis, Mo.) and 300 μM peptide (American Peptide, Sunnyvale, Calif.). Reactions were carried out at 30° C. and 20 nM GSK-3β. Final concentrations of the components of the coupled enzyme system were 2.5 mM phosphoenolpyruvate, 300 μM NADH, 30 μg/ml pyruvate kinase and 10 μg/ml lactate dehydrogenase.
An assay stock buffer solution was prepared containing all of the reagents listed above with the exception of ATP and the test compound of the present invention. The assay stock buffer solution (175 μl) was incubated in a 96 well plate with 5 μl of the test compound of the present invention at final concentrations spanning 0.002 μM to 30 μM at 30° C. for 10 min. Typically, a 12-point titration was conducted by preparing serial dilutions (from 10 mM compound stocks) with DMSO of the test compounds of the present invention in daughter plates. The reaction was initiated by the addition of 20 μl of ATP (final concentration 20 μM). Rates of reaction were obtained using a Molecular Devices Spectramax plate reader (Sunnyvale, Calif.) over 10 min at 30° C. The Ki values were determined from the rate data as a function of inhibitor concentration.

[1] = tested on: β-catenin dependent TCF/LEF transcriptional activity; assay: β-catenin stabilization protocol (β-lactamase reporter assay in Jurkat cells); type: cell-based; settings: Homo sapiens, 460/530 ratio, 50% of the maximum effect, read-out: Beta Catenin IC50
Description: GSK-3 phosphorylation of β-catenin targets it to the proteosome for degradation. Inhibition of GSK-3 results in accumulation of β-catenin in the cytosol of cells which through interaction with the transcription factor TCF/LEF translocates to the nucleus and drives the transcription of Wnt-dependent genes. The assay is designed to determine the level of β-catenin dependent TCF/LEF transcriptional activity in a quantitative manner through the use of a β-lactamase reporter assay in Jurkat cells dosed with a compound.
Jurkat β-catenin cells are starved overnight in assay media (1% FBS, 1× Penstrep, RPMI) in the flask. The next day Jurkat β-catenin cells are seeded in 96 well flat bottom plates at a density of 50,000 cells/well in assay media in a volume of 100 ul. The compound is added to the well at a final DMSO concentration of 0.75% and incubated at 37° C. o/n. The next day, 20 uL of 6× CCF4 dye is added to the wells and incubated at room temperature for 1-2 hours. Plates are read on the Cytofluor 4000 series multiwell plate reader and the 460/530 ratio is determined.

GSK3α TYR 279 = GSK3α TYR 279 (Homo sapiens (Human), UniProt P49840); assay: GSK-3α p-TYR inhibition assay (western blotting of Jurkat cells); type: cell-based; settings: compound incubated o/n, western blot, read-out: GSK3a pTYR 279: IC50
Chain of GSK3α TYR 279 (P49840 whole entry): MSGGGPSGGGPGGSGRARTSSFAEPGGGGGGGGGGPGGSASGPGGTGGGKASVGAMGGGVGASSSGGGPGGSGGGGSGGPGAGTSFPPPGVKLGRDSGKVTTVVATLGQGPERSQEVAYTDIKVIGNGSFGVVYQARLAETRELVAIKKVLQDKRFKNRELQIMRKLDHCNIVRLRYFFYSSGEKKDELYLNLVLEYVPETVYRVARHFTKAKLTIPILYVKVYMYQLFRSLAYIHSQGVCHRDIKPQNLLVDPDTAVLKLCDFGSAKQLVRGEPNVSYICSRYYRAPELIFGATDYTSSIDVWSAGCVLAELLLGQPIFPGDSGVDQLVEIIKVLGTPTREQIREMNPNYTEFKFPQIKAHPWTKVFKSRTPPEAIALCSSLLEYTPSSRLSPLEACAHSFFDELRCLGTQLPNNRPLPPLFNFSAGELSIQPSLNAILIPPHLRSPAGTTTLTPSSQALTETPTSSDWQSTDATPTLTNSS
Procedure: (§1) Compounds are screened for their ability to inhibit the phosphorylation of tyrosine (TYR) residues through the use of western blotting of Jurkat cells dosed with the compounds. The phosphorylation of the specific TYR residues tested are GSK3α TYR 279 and GSK3β TYR 216.
(§2) Jurkat cells are seeded at a density of 2×10^5 cells/well in a 12 well dish in starvation media (RPMI+1% FBS+P/S). Following starvation for 16 hours, the compound is dosed into each well at a final DMSO concentration of 0.3% and cells are incubated o/n at 37° C. 5% CO2. The next day, cells are spun down at 1500 rpm, washed with PBS, and lysed in 100 uL Laemli sample buffer with β-mercaptoethanol.
(§3) 15 microliters (uL) of cell lysates are loaded onto a 10% tris-glycine gel and run at 120 v for 2 hours or until dye front runs off of the gel. The protein is then transferred onto a PVDF membrane at 100 v for 60 min. PBST (PBS containing 0.1% Tween 20, such as 1 ml Tween per 1 L of PBS) is then made up and used for all washes and antibody incubations. The blot is blocked in 5% nonfat milk PBST for one hour.
(§4) The primary antibody (GSK-3α/β pTYR 279/216 at 1:1000 dilution Upstate cat #05-413) is then added in 5%-nonfat milk PBST overnight at 4° C. with gentle rocking. The blot is then washed in PBST for 5 min. This is then repeated 4 times. A secondary anti-mouse-HRP conjugated antibody (1:5000 dilution) is added for 60 min in 5% milk PBST. The blot is then washed in PBST for 5 min. This is also repeated 4 times. 3.0 mL of the developing solution (ECL plus Western Blotting Detection System from Amersham/GE cat # RPN2132) is made and then added. The solution is swirled over the blot for ˜30 sec. The blot is then developed using CL-Xposure clear blue X-ray film. GAPDH expression level is used as a loading control, (GAPDH antibody: santa cruz 25-778) at 1:10000 dilution.
(§5) For determination of GSK-3α and GSK-3β pTYR IC50, the density of the respective bands for each protein at specific compound concentration is compared to a no compound DMSO treated control cell sample present on each exposure.

GSK3β TYR 216 = GSK3β TYR 216 (Homo sapiens (Human), UniProt P49841); assay: GSK3β p-TYR inhibition assay (western blotting of Jurkat cells); type: cell-based; settings: compound incubated o/n, western blot, read-out: GSK3b pTYR 216: IC50
Chain of GSK3β TYR 216 (P49841 whole entry): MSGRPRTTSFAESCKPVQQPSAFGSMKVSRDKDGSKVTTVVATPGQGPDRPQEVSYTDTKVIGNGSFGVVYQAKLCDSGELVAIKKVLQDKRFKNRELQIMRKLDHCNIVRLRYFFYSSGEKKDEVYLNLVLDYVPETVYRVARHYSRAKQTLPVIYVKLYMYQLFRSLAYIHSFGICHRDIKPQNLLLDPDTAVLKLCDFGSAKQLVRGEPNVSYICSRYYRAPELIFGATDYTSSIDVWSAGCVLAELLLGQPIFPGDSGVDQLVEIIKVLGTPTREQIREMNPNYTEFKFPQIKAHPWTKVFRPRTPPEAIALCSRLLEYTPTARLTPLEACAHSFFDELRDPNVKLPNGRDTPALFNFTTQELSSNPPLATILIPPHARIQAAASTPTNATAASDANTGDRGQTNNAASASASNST
Procedure: as §1, §2, §3, §4, §5

[2] = tested on: infarct size in rat brains; settings: after transient MCAO in rats; cited from earlier work
amyloid-β peptides = settings: mice over-expressing APP, treated over a three-week period; cited from earlier work

Chain of GSK-3β (AA 1-420) (P49841 whole entry, species assumed, the tested form may be a part): as the sequence (P49841 whole entry) above

Compound	pKi (GSK-3β (AA 1-420))	pIC50 [1]	pIC50 (GSK3α TYR 279)	pIC50 (GSK3β TYR 216)	infarct size in rat brains [2]	decrease in amyloid-β peptide tissue levels (amyloid-β peptides) [%]
CN1CCN(c2cc(Nc3n[nH]c4ccc(F)cc34)nc(C3CCCCC3)n2)CC1 [Compound I-2]	6.30 to 7.60	–	–	–	–	–
Fc1cnc2[nH]nc(Nc3cc(Cl)nc(C4CCCCC4)n3)c2c1 [Compound I-1]	> 7.60	–	–	–	–	–
CC(C)(O)c1cc(Nc2n[nH]c3ncc(F)cc23)nc(C2CCCCC2)n1 [Compound I-21]	–	6.00	8.52	7.70	–	–
Cc1cc(Nc2n[nH]c3ncc(F)cc23)nc(C2CCOCC2)n1 [Compound I-17]	–	6.96	8.52	7.52	–	–
Cc1cc(Nc2n[nH]c3ncc(F)cc23)nc(C2CCCCC2)n1 [Compound I-10]	–	6.40	9.30	8.22	–	–
IGF-1: insulin growth factor-1, a known GSK-3 inhibitor	–	–	–	–	reduced infarct size	–
Cc1cc(Nc2n[nH]c3ncc(F)cc23)nc(C2CC2)n1 [Compound I-20]	6.30 to 7.60	–	–	–	–	–
Cc1cc(Nc2n[nH]c3ccc(F)cc23)nc(C2CCCCC2)n1 [Compound I-23]	–	5.96	8.70	7.60	–	–
Cc1cc(Nc2n[nH]c3ccc(F)cc23)nc(C2CCOCC2)n1 [Compound I-15]	6.30 to 7.60	5.32	7.52	6.70	–	–
Cc1nc(C2CCCCC2)nc(Nc2n[nH]c3ncc(F)cc23)c1C [Compound I-3]	> 7.60	5.43	9.15	7.89	–	–
Cc1cc(Nc2n[nH]c3ncc(F)cc23)nc(C2CCCC2)n1 [Compound I-9]	–	5.85	8.70	7.32	–	–
Cc1nc(Nc2n[nH]c3ncc(F)cc23)cc(C2CCC(F)(F)CC2)n1 [Compound I-4]	> 7.60	6.68	9.00	7.70	–	–
Cc1cc(Nc2n[nH]c3ncc(F)cc23)nc(C2CCCCCC2)n1 [Compound I-8]	–	6.22	9.52	8.00	–	–
Cc1cc(Nc2n[nH]c3ncc(F)cc23)nc([C@H]2CCCC[C@@H]2C)n1 [Compound I-18]	–	5.62	9.00	6.52	–	–
Cc1nc(C2CCOCC2)nc(Nc2n[nH]c3ncc(F)cc23)c1C [Compound I-5]	–	< 5.00	7.52	6.10	–	–
[Li] [lithium]	–	–	–	–	–	> 50
Cc1cc(Nc2n[nH]c3ccc(F)cc23)nc(C2CCCC2)n1 [Compound I-14]	> 7.60	–	–	–	–	–
